Results on one substance are retold here after US20160067425A1, “DEVICES AND METHODS FOR TREATING TISSUES AND TISSUE CONDITIONS” (priority 2014, published 2016).

The conditions of data set [1]: typical systemic range, compared with 1 unit/cc injected; cited from earlier work.
Data set [2] has as its system basal cell carcinoma (BCC). In words: Intralesional treatment of clamp-isolated basal cell carcinoma on the ear lobe (Example 1). In kind it is in vivo, human. On the procedure: A person with basal cell carcinoma (one year history of asymptomatic growth) on their left ear lobe was treated by mechanically isolating the basal cell carcinoma (BCC). Diagnosis of BCC was made based on the lesion's clinical presentation as a well-circumscribed pearly nodule with central crusted ulceration (see FIG. 14A) and the results of a shave biopsy (see FIG. 15A). The patient refused surgical therapy.
A chalazion clamp was used to isolate the tissue surrounding the BCC. One fifth unit (0.2 cc×1 unit/cc) of bleomycin in 1% lidocaine was injected into the clamped region (systemic bleomycin concentrations are typically in the range of 0.00023 units/mL or about 1000×lower). […] After 20 minutes, an 18-gauge needle was used to remove most of the injected fluid from the clamped area. The chalazion clamp was then removed.

Consider bleomycin, for which the “systemic concentrations typically used” value in data set [1] was approximately 0.00023 units/mL. In data set [2] (0.2 unit intralesional in clamped region, 20 minutes), the “adverse effects / patient complaints” value is “no adverse effects”. The “retention of injected agent in the pressure isolated region” value in data set [2] (chalazion clamp, evidenced by localized raised and stretched area of the skin) was “remained within the clamped area”. The “clinical appearance of the BCC after treatment” value in data set [2] (patient, left ear lobe, 0.2 cc x 1 unit/cc in 1% lidocaine injected into chalazion-clamped region, removed after 20 minutes, 25-days post-treatment) is recorded as “clinically cured”. In data set [2] (post-treatment punch biopsy, FIG. 15B), the “histology from 4 mm punch biopsy after treatment” value was “confirm by histology”.
